Measured values taken from the NIST ThermoML archive (doi:10.1016/j.jct.2016.07.029).

Test: excess molar enthalpy (molar enthalpy of mixing); xn = mol fraction of the nth substance listed
Details: 100 kPa, Liquid, Calvet calorimetry

[Zn] [zinc] + [Ga]
Details | excess molar enthalpy [kcal/mol]
722 K, x1 = 0.0966 | 0.125
722 K, x1 = 0.132 | 0.161
722 K, x1 = 0.1679 | 0.205
722 K, x1 = 0.237 | 0.272
722 K, x1 = 0.2478 | 0.255
722 K, x1 = 0.2796 | 0.304
722 K, x1 = 0.3239 | 0.337
722 K, x1 = 0.3424 | 0.323
722 K, x1 = 0.3664 | 0.357
722 K, x1 = 0.4104 | 0.377
722 K, x1 = 0.4155 | 0.361
722 K, x1 = 0.4432 | 0.385
722 K, x1 = 0.4746 | 0.378
722 K, x1 = 0.4747 | 0.393
722 K, x1 = 0.5057 | 0.402
722 K, x1 = 0.5202 | 0.377
722 K, x1 = 0.5368 | 0.404
722 K, x1 = 0.5565 | 0.378
722 K, x1 = 0.562 | 0.406
722 K, x1 = 0.5901 | 0.379
722 K, x1 = 0.6188 | 0.375
722 K, x1 = 0.6444 | 0.37
722 K, x1 = 0.6659 | 0.363
722 K, x1 = 0.6846 | 0.357
722 K, x1 = 0.761 | 0.326
722 K, x1 = 0.8068 | 0.305
722 K, x1 = 0.8495 | 0.256
722 K, x1 = 0.9004 | 0.182
722 K, x1 = 0.948 | 0.102
923 K, x1 = 0.07739 | 0.092
923 K, x1 = 0.1307 | 0.149
923 K, x1 = 0.1593 | 0.182
923 K, x1 = 0.2353 | 0.252
923 K, x1 = 0.2736 | 0.284
923 K, x1 = 0.3154 | 0.313
923 K, x1 = 0.3262 | 0.315
923 K, x1 = 0.3711 | 0.346
923 K, x1 = 0.3774 | 0.352
923 K, x1 = 0.4101 | 0.361
923 K, x1 = 0.4408 | 0.38
923 K, x1 = 0.4434 | 0.384
923 K, x1 = 0.4743 | 0.395
923 K, x1 = 0.4896 | 0.398
923 K, x1 = 0.4981 | 0.403
